Source: patent US8197860B2, “Method for enhancing nutrient absorption with astragalosides” (Nuliv Holding Inc., priority 2005, dated 2012)

Experiments:
Type in all cases: cell-based, human
[1] = test system: Caco-2 cell monolayer; assay: Arginine absorption assay (transport across Caco-2 cell monolayer); design: key to * (regulatory effect on arginine transport): ↑: the arrows that point up represent the enhancing effect on the arginine transport; conditions: for Regulatory effects on the arginine transport across the Caco2 cell monolayer: Table 3 summary; for Transport rate (arginine): 10 mM L-arginine apical; for Arginine transport rate: concentration from 0.01 μM to 1 μM
Description: (§1) To evaluate the effect of the isolated astragaloside compound on the uptake of nutrient substances across the intestinal lumen, Caco-2 cells were grown on permeable filter as an experimental model. Caco2 cells originate from human colonic adenocarcinoma and spontaneously differentiate into an enterocyte-like phenotype after two weeks. The Caco-2 cell line, derived from a human colorectal carcinoma, has been used as an in vitro model system for studying drug absorption in gastrointestinal tract. These cells form monolayers with well-developed tight-junctions, and have been evaluated in details as an in vitro model to study both transcellular transport of nutrients and drugs in intestinal lumen.
(§2) Caco-2 cells were obtained from the ATCC (American Type Culture Collection). The cells were maintained in Dulbecco's modified Eagle medium (DMEM) containing 4.5 g/L glucose and 25 mM Hepes, supplemented with 10% fetal calf serum, 100 U/mL penicillin G and […]. The medium was changed every second day. The cells were routinely checked for Mycoplasma in monthly intervals. Caco-2 cells were cultured on semi-permeable membranes to differentiate into a highly functionalized epithelial barrier with remarkable morphological and biochemical similarity to the small intestinal columnar epithelium. The Caco-2 cell monolayers could therefore be used to study the membrane transport properties of many compounds. To trypsinize the cells, the culture dish was washed once with phosphate-buffered saline (PBS) followed by adding trypsine-EDTA for 10 minutes. The trypsinized cells were separated and filtered into single cells using a 35-μm strainer cap (Falcon 2235) before being seeded for further experiments.
(§3) In measuring transport of arginine across the Caco-2 cell monolayer, both sides of the transwells were washed with arginine incubation buffer consisting of: 137 mM NaCl, 10 mM Hepes, 0.3 mM NaH2PO4, 0.3 mM K2HPO4, 5.4 mM KCl, 2.8 mM CaCl2, 1 mM MgSO4, 10 mM glucose, adjusted to pH 7.4. Then, the cell layer was preincubated in the incubation buffer at 37° C. for 1 h. The volume of incubation buffer was 0.2 mL and 0.9 mL in the apical and basolateral chambers, respectively. The cells were replaced with fresh incubation medium in both chambers prior to the transport experiment. The transport experiment was initiated by replacing the incubation solution on the apical side with solution containing 10 mM of L-arginine in which 0.125 μCi/mL of L-[^3H]-arginine was included. At designated time intervals, 10 μL-solution samples were removed from the basolateral side and radioactivity of each sample was counted using a microplate liquid scintillation counter (TopCount, Packard NXT). During the experiment, when a 10 μL-solution sample was removed from the basolateral side every time, 10 μL buffer was supplemented to keep the volume constant. The uptake of [^3H]-mannitol was used to correct for nonspecific transport of molecules across the monolayer membrane. Results were expressed as the nanomoles of arginine transport across the Caco-2 cell monolayers with respect to time in minutes (nmol/min).

[2] = test system: Caco-2 cell monolayer; assay: Tryptophan absorption assay (transport across Caco-2 cell monolayer); design: key to * (regulatory effect on tryptophan transport): ↑: the arrows that point up represent the enhancing effect on the tryptophan transport; conditions: for Regulatory effects on the tryptophan transport across the Caco2 cell monolayer: Table 4 summary; for Tryptophan transport rate: concentration from 0.01 μM to 1 mM
Description: as §1, §2, §3
The experimental procedures similar to those in Example 2 were used for measuring the uptake of tryptophan molecules across the Caco-2 membrane, except using a tryptophan incubation buffer consisting of 137 mM choline chloride, 10 mM Hepes, 0.6 mM KH2PO4, 5.4 mM KCl, 2.8 mM CaCl2, 1 mM MgSO4, and 10 mM glucose, and having its pH adjusted to 7.4. Results were expressed as the nanomoles of tryptophan transport across the Caco-2 cell monolayers with respect to time in minutes (nmol/min).

[3] = test system: Caco2 cells; assay: Folate uptake assay; design: key to * (regulatory effect on folate uptake): ↑: the arrows that point up represent the enhancing effect on folate uptake; conditions: compound 0.1 μM; for Uptake rate (folate): 2 days, 5 μM folate, pH 6.0
Description: as §1, §2
(§4) Caco-2 cells (5×10^4) were seeded in a 48-well plate and maintained in culture medium (DMEM with 10% FBS, 1% nonessential amino acids, L-glutamine, penicillin G (100 U/mL), streptomycin (10 μg/mL), and amphotericin B (2.5 μg/mL) in a 37° C. incubator for 10 days for the cells to differentiate. The culture medium was changed once every two days. The cells were then washed with PBS before replenishing with the culture medium containing 5% FBS and various astragalosides at the indicated concentrations (0.01, 0.1 and 1 μM) for 48 hours. The Caco2 cells were washed out of remaining glucose with PBS and replaced in the glucose buffer (80 mM NaCl, 100 mM mannitol, 20 mM Tris-HCl, pH 7.4, 3 mM K2HPO4, 1 mM CaCl2, 1 mg/mL BSA) for 1 hour. Glucose uptake was initiated by replacing the glucose buffer with 0.2 ml of glucose buffer containing 2 μCi/mL of ^14C-glucose and unlabeled cold glucose to give a final glucose concentration of 25 mM. Glucose uptake was stopped by removing the glucose buffer and washing with PBS at designated time intervals. The cells were lysed in 0.2 mL of 0.2 N NaOH, and 20 μL of the cell lysate were transferred to the filter-bottomed UniFilter plates (Perkin-Elmer, Wellesley, Mass., USA) and dried in a vacuum oven at 37° C. The bottom of the UniFilter plate was sealed and 25 μL of the counting solution were added into each well. Adhesive plate sealers were used in place of the lids and radioactivity of each sample was counted using the microplate liquid scintillation counter (TopCount, Packard NXT, Packard BioScience Company, Meriden, Conn., USA). The amount of glucose accumulated in the cells was calculated and normalized to protein concentration, and uptake rate was expressed as nanomoles of glucose per minutes per milligram of cell protein (nmol/min/mg). Protein concentration was determined by a standard Bicinchoninic acid (BCA) protein assay. Nonspecific glucose uptake was measured by adding 2 μCi of L-[^14C]-glucose and subtracting from each determination to obtain specific glucose uptake.
The Caco2 cells were subjected to folate uptake test in a manner similar to that described in the glucose uptake assay in Example 1 above. […]

[4] = test system: Caco2 cells; assay: Glucose uptake assay; design: key to * (regulatory effect on glucose uptake): ↑: the arrows that point up represent the enhancing effect on the glucose uptake; conditions: for Regulatory effects on the glucose uptake of the Caco2 cells: Table 2 summary; for Uptake rate (glucose): 48 hours, 25 mM glucose
Description: as §1, §2, §4

Compound	Regulatory effects on the arginine transport across the Caco2 cell monolayer [1]	* (regulatory effect on arginine transport) ([1]; compound 0.01 μM)	Percentage (arginine transport, control = 100) ([1]; compound 0.01 μM)	Transport rate (arginine) ([1]; compound 0.01 μM)	* (regulatory effect on arginine transport) ([1]; compound 0.1 μM)	Percentage (arginine transport, control = 100) ([1]; compound 0.1 μM)	Transport rate (arginine) ([1]; compound 0.1 μM)	* (regulatory effect on arginine transport) ([1]; compound 1 μM)	Percentage (arginine transport, control = 100) ([1]; compound 1 μM)	Transport rate (arginine) ([1]; compound 1 μM)	Arginine transport rate [1]	Regulatory effects on the tryptophan transport across the Caco2 cell monolayer [2]	* (regulatory effect on tryptophan transport) ([2]; compound 0.01 μM)	Percentage (tryptophan transport, control = 100) ([2]; compound 0.01 μM)	Transport rate (tryptophan) ([2]; compound 0.01 μM)	* (regulatory effect on tryptophan transport) ([2]; compound 0.1 μM)	Percentage (tryptophan transport, control = 100) ([2]; compound 0.1 μM)	Transport rate (tryptophan) ([2]; compound 0.1 μM)	* (regulatory effect on tryptophan transport) ([2]; compound 1 μM)	Percentage (tryptophan transport, control = 100) ([2]; compound 1 μM)	other results
CC(C)(O)[C@@H]1CC[C@](C)([C@H]2[C@@H](O)C[C@@]3(C)[C@@H]4C[C@H](O[C@@H]5O[C@H](CO)[C@@H](O)[C@H](O)[C@H]5O)[C@H]5C(C)(C)[C@@H](O[C@@H]6OC[C@@H](O)[C@H](O)[C@H]6O)CC[C@@]56C[C@@]46CC[C@]23C)O1 [AS4, astragaloside IV]	had regulatory effects on the arginine transport	↑	156.52%	16.7245 ± 0.2890 nmol/min	↑	172.73%	18.4575 ± 0.5955 nmol/min	↑	161.19%	17.2241 ± 0.3759 nmol/min	increased	had regulatory effects on the tryptophan transport	↑	113.29%	10.130 ± 0.7025 nmol/min	↑	142.36%	12.730 ± 0.4470 nmol/min	↑	108.07%	Transport rate (tryptophan) ([2]; compound 1 μM): 9.6640 ± 0.2770 nmol/min; Tryptophan transport rate [2]: increased; * (regulatory effect on folate uptake) [3]: ↑; Percentage (folate uptake vs own control) [3]: 135.12%; Uptake rate (folate) [3]: 75.710 ± 5.2390 pmol/mg/min; Glucose uptake rate versus control group ([4]; FIG. 1, selected concentrations): much higher glucose uptake rate than the control group; Regulatory effects on the glucose uptake of the Caco2 cells [4]: had regulatory effects on the glucose uptake; * (regulatory effect on glucose uptake) ([4]; compound 0.01 μM): ↑; Percentage (glucose uptake, control = 100) ([4]; compound 0.01 μM): 183.15%; Uptake rate (glucose) ([4]; compound 0.01 μM): 11.670 ± 2.5800 nmol/mg/min; * (regulatory effect on glucose uptake) ([4]; compound 0.1 μM): ↑; Percentage (glucose uptake, control = 100) ([4]; compound 0.1 μM): 164.16%; Uptake rate (glucose) ([4]; compound 0.1 μM): 10.460 ± 2.6690 nmol/mg/min; * (regulatory effect on glucose uptake) ([4]; compound 1 μM): ↑; Percentage (glucose uptake, control = 100) ([4]; compound 1 μM): 141.27%; Uptake rate (glucose) ([4]; compound 1 μM): 9.0020 ± 1.8300 nmol/mg/min
CC(C)(O)[C@@H]1CC[C@](C)([C@H]2[C@@H](O)C[C@@]3(C)[C@@H]4C[C@H](O[C@@H]5O[C@H](CO)[C@@H](O)[C@H](O)[C@H]5O)[C@H]5C(C)(C)[C@@H](O[C@@H]6OC[C@@H](O)[C@H](O)[C@H]6O[C@@H]6O[C@H](CO)[C@@H](O)[C@H](O)[C@H]6O)CC[C@@]56C[C@@]46CC[C@]23C)O1 [AS6, astragaloside VI]	had regulatory effects on the arginine transport	↑	130.35%	13.9283 ± 1.7330 nmol/min	↑	140.36%	14.9986 ± 1.3200 nmol/min	↑	127.22%	13.5942 ± 1.2760 nmol/min	increased	had regulatory effects on the tryptophan transport	↑	173.45%	15.510 ± 0.3688 nmol/min	↑	151.87%	13.850 ± 0.6567 nmol/min	↑	173.23%	Transport rate (tryptophan) ([2]; compound 1 μM): 15.490 ± 0.2161 nmol/min; Tryptophan transport rate [2]: increased; * (regulatory effect on folate uptake) [3]: ↑; Percentage (folate uptake vs own control) [3]: 140.37%; Uptake rate (folate) [3]: 84.560 ± 4.7200 pmol/mg/min; Regulatory effects on the glucose uptake of the Caco2 cells [4]: had regulatory effects on the glucose uptake; * (regulatory effect on glucose uptake) ([4]; compound 0.01 μM): ↑; Percentage (glucose uptake, control = 100) ([4]; compound 0.01 μM): 119.84%; Uptake rate (glucose) ([4]; compound 0.01 μM): 7.6360 ± 1.7330 nmol/mg/min; * (regulatory effect on glucose uptake) ([4]; compound 0.1 μM): ↑; Percentage (glucose uptake, control = 100) ([4]; compound 0.1 μM): 109.97%; Uptake rate (glucose) ([4]; compound 0.1 μM): 7.0070 ± 1.9470 nmol/mg/min; * (regulatory effect on glucose uptake) ([4]; compound 1 μM): ↑; Percentage (glucose uptake, control = 100) ([4]; compound 1 μM): 122.49%; Uptake rate (glucose) ([4]; compound 1 μM): 7.8050 ± 1.1830 nmol/mg/min
